Test results: PMC5046141, “Discovery of Isoquinolinoquinazolinones as a Novel Class of Potent PPARγ Antagonists with Anti-adipogenic Effects” (Scientific Reports, 2016)

Experiments:
[1] = biological target: T1, PPARγ2 (Mus musculus, UniProt P37238); experiment: PPRE-Luc luciferase reporter assay of PPARγ2-induced transcriptional activity in 3T3-L1 cells; format: cell-based; details: for IC50: 3T3-L1 cotransfected with PPARγ2 and PPRE-Luc, read-out: IC50 with respect to PPARγ2-induced transcriptional activity; for inhibition of PPARγ2 transfection (transcriptional activity), with rosiglitazone stimulation / inhibition of PPARγ2 transfection (transcriptional activity), compound alone: 5 μM; for inhibition of PPARγ2 transfection (transcriptional activity), compound alone: without rosiglitazone
T1 construct: expressed in transfected cells; host or cells: 3T3-L1 (mouse preadipocytes), pCS4 CMV vector
T1 sequence (P37238 1-505): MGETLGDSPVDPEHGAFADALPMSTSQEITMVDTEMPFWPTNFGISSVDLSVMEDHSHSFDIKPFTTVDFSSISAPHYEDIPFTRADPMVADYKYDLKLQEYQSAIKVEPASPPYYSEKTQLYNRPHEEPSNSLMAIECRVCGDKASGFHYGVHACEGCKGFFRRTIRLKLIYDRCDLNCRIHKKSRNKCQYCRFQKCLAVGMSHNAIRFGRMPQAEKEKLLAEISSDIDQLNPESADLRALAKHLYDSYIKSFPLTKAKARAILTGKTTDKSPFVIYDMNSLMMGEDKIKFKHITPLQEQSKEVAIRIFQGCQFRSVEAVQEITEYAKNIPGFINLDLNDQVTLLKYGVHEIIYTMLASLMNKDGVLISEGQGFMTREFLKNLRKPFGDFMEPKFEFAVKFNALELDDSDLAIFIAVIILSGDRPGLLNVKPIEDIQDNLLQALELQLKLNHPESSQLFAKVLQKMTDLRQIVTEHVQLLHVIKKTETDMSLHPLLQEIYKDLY
Protocol: To analyze whether isoquinolinoquinazolinones inhibit the transactivation of PPARγ, 3T3-L1 cells were cotransfected with full-length PPARγ2 expression vector with a peroxisome proliferator response element (PPRE)-driven luciferase reporter gene (PPRE-Luc) that has been reported to respond to PPARγ[23][24]. […] Titration curves were generated using Graph Pad Prism®, and the IC50 value of each compound with respect to PPARγ2-induced transcriptional activity was determined.
The transcription activity was determined in 3T3-L1 cells transiently co-transfected with PPRE-driven luciferase reporter gene (PPRE-Luc) and PPARγ2 expression vector. […] After 24 h of transfection, the cells were cultured with indicated combination for 12 h. Luciferase activity was measured after 36 h.
For plasmids expressing PPARγ2, full length PPARγ2 (mouse, 1518 bp: NCBI Reference Sequence: NP_035276.2) was subcloned into CMV promoter-derived mammalian expression vector (pCS4). Plasmids for C285G, R288G mutant PPARγ2 were generated by PCR-based site-directed mutagenesis and also subcloned into CMV promoter-derived mammalian expression vector (pCS4).
3T3-L1 cells were transfected for indicated combinations of expression plasmids along with a luciferase reporter plasmid (PPRE-Luc). PPRE-Luc contains the consensus PPAR responsive element (PPRE). pCMV-β-gal was co-transfected for normalization of transfection efficiency. 24 h after transfection, cells were treated with indicated compounds for 12 h. Luciferase activities were measured using a luciferase reporter assay kit (Promega, Madison, WI, USA). Experiments were performed in triplicate and repeated at least three times.

[2] = tested on: 3T3-L1 preadipocytes; experiment: Oil Red O staining assay of adipocyte differentiation; format: cell-based, mouse; details: for inhibition at 25 µM: Mus musculus, 3T3-L1, relative absorbance from Oil Red O staining at 25 μM, read-out: Inhibitory activity (%) on adipocyte differentiation
Protocol: The GW9662-mediated inhibition of PPARγ was confirmed using an Oil Red O staining assay to measure adipocyte differentiation. To investigate whether the novel compounds could inhibit adipocyte differentiation, 3T3-L1 preadipocytes were incubated with differentiation medium (MDI; insulin, dexamethasone, and isobutyl methyl xanthine) in the presence of increasing concentrations of isoquinolinoquinazolinones. Adipogenesis was analyzed using Oil Red O staining after treatment with the compounds.
The mouse preadipocyte cell line 3T3-L1 was maintained at 37 °C in humidified air with 5% CO2. 3T3-L1 cells were cultured in Dulbecco’s modified Eagle medium (DMEM; Life Technologies) supplemented with 10% bovine serum (BS; Gibco Invitrogen, Carlsbad, California, USA) as growth medium. For adipocyte differentiation, cells were cultured for 2 days to full confluence in a 24-well plate and the growth medium was then replaced (day 0) with DMEM supplemented with 10% fetal bovine serum (FBS, Gibco Invitrogen, Carlsbad, California, USA), 5 μg/mL insulin (Sigma, St. Louis, Missouri, USA), 0.5 mM 3-isobutyl-1-methylxanthine (Sigma), and 1 μM dexamethasone (Sigma). After 48 h, the differentiation medium was replaced (day 2) with DMEM + 10% FBS containing 5 μg/mL insulin, and the cells were allowed to accumulate lipid droplets until experimental use.
The accumulation of lipids signifying the formation of adipocytes was observed by staining the differentiated cells with Oil Red O. Following differentiation, cells were washed twice with phosphate-buffered saline (PBS), fixed with 10% formalin for 60 min. Oil Red O stock solution (0.5%) was prepared in isopropanol and filtered in cellulose nitrate filters. Cells were stained with Oil Red O diluted 6:4 in water for 1 h at room temperature. Excess Oil Red O dye was washed off twice with distilled water and then dried. The stained lipid droplets within cells were visualized using an optical microscope and photographed with a digital camera at 100× magnification.

SMILES | melting point | IC50 [1] | inhibition at 25 µM [2] | inhibition of PPARγ2 transfection (transcriptional activity), with rosiglitazone stimulation [1] | inhibition of PPARγ2 transfection (transcriptional activity), compound alone [1] | Inhibitory activity (%) on adipocyte differentiation ([2]; relative absorbance from Oil Red O staining at 25 μM, 25 µM)
COc1cc2cc3n(c(=O)c2cc1OC)CNc1ccc(Cl)cc1-3 [Compound 8n, 2-Chloro-10,11-dimethoxy-5H-isoquinolino[2,3-c]quinazolin-8(6H)-one] | 193.5 to 194.6 °C | 5.02 µM | 71.5% | – | – | –
COc1cc2cc3n(c(=O)c2cc1OC)CNc1cc(Cl)ccc1-3 [Compound 8o, 3-Chloro-10,11-dimethoxy-5H-isoquinolino[2,3-c]quinazolin-8(6H)-one] | 228.7 to 230.5 °C | 2.43 µM | 82.9% | 88% | 82% | 82.4%
O=C(Nc1ccccc1)c1cc([N+](=O)[O-])ccc1Cl [GW9662, reference compound] | – | 4.47 µM | 51.4% | 48% | 46% | –
